System: E. coli strain W3110
Assay: Synergy assays: Biolog chemical sensitivity panels with Group IB metal, coefficient of drug interaction (CDI) from relative growth
Assay type: cell-based
Details: for CDI (coefficient of drug interaction) / CDI (coefficient of drug interaction), silver + biocide: E. coli; for CDI (coefficient of drug interaction), gold + biocide: Gold (μM)
[1] = Copper (mM), 1st of 3 copper concentrations (head line not shown), biocide concentration 4 of 4
[2] = Copper (mM), 2nd of 3 copper concentrations (head line not shown), biocide concentration 4 of 4
[3] = Copper (mM), 3rd of 3 copper concentrations (head line not shown), biocide concentration 4 of 4
[4] = first of 3 gold concentrations, biocide concentration 4 of 4
[5] = second of 3 gold concentrations, biocide concentration 4 of 4
[6] = third of 3 gold concentrations, biocide concentration 4 of 4
[7] = Silver 0.5 μM, biocide concentration 4 of 4
[8] = Silver 1.0 μM, biocide concentration 4 of 4
[9] = Silver 5.0 μM, biocide concentration 4 of 4

O=[N+]([O-])c1ccc(O)c([N+](=O)[O-])c1 [2,4-dintrophenol]
CDI (coefficient of drug interaction) (Copper (mM), 1st of 3 copper concentrations (head line not shown), biocide concentration 1 of 4): 0.87 | CDI (coefficient of drug interaction) (Copper (mM), 1st of 3 copper concentrations (head line not shown), biocide concentration 2 of 4): 0.83 | CDI (coefficient of drug interaction) (Copper (mM), 1st of 3 copper concentrations (head line not shown), biocide concentration 3 of 4): 1.10 | CDI (coefficient of drug interaction) [1]: Tox | CDI (coefficient of drug interaction) (Copper (mM), 2nd of 3 copper concentrations (head line not shown), biocide concentration 1 of 4): 0.76 | CDI (coefficient of drug interaction) (Copper (mM), 2nd of 3 copper concentrations (head line not shown), biocide concentration 2 of 4): 0.64 | CDI (coefficient of drug interaction) (Copper (mM), 2nd of 3 copper concentrations (head line not shown), biocide concentration 3 of 4): 0.99 | CDI (coefficient of drug interaction) [2]: Tox | CDI (coefficient of drug interaction) (Copper (mM), 3rd of 3 copper concentrations (head line not shown), biocide concentration 1 of 4): 0.50 | CDI (coefficient of drug interaction) (Copper (mM), 3rd of 3 copper concentrations (head line not shown), biocide concentration 2 of 4): 0.49 | CDI (coefficient of drug interaction) (Copper (mM), 3rd of 3 copper concentrations (head line not shown), biocide concentration 3 of 4): 1.14 | CDI (coefficient of drug interaction) [3]: Tox | CDI (coefficient of drug interaction), gold + biocide (first of 3 gold concentrations, biocide concentration 1 of 4): 1.05 | CDI (coefficient of drug interaction), gold + biocide (first of 3 gold concentrations, biocide concentration 2 of 4): 1.02 | CDI (coefficient of drug interaction), gold + biocide (first of 3 gold concentrations, biocide concentration 3 of 4): 1.27 | CDI (coefficient of drug interaction), gold + biocide [4]: Tox | CDI (coefficient of drug interaction), gold + biocide (second of 3 gold concentrations, biocide concentration 1 of 4): 1.02 | CDI (coefficient of drug interaction), gold + biocide (second of 3 gold concentrations, biocide concentration 2 of 4): 0.94 | CDI (coefficient of drug interaction), gold + biocide (second of 3 gold concentrations, biocide concentration 3 of 4): 1.02 | CDI (coefficient of drug interaction), gold + biocide [5]: Tox | CDI (coefficient of drug interaction), gold + biocide (third of 3 gold concentrations, biocide concentration 1 of 4): 0.85 | CDI (coefficient of drug interaction), gold + biocide (third of 3 gold concentrations, biocide concentration 2 of 4): 0.74 | CDI (coefficient of drug interaction), gold + biocide (third of 3 gold concentrations, biocide concentration 3 of 4): 0.61 | CDI (coefficient of drug interaction), gold + biocide [6]: Tox | CDI (Silver 0.5 μM, biocide concentration 1 of 4): 0.72 | CDI (Silver 0.5 μM, biocide concentration 2 of 4): 0.80 | CDI (Silver 0.5 μM, biocide concentration 3 of 4): 0.86 | CDI [7]: Tox | CDI (Silver 1.0 μM, biocide concentration 1 of 4): 0.91 | CDI (Silver 1.0 μM, biocide concentration 2 of 4): 0.83 | CDI (Silver 1.0 μM, biocide concentration 3 of 4): 1.02 | CDI [8]: Tox | CDI (Silver 5.0 μM, biocide concentration 1 of 4): 1.10 | CDI (Silver 5.0 μM, biocide concentration 2 of 4): 1.04 | CDI (Silver 5.0 μM, biocide concentration 3 of 4): 1.04 | CDI [9]: Tox

O=C(O)c1cc(O)c(O)c(O)c1 [gallic acid]
CDI (coefficient of drug interaction) [1]: Tox | CDI (coefficient of drug interaction) [2]: Tox | CDI (coefficient of drug interaction) [3]: Tox | CDI (coefficient of drug interaction), gold + biocide [4]: Tox | CDI (coefficient of drug interaction), gold + biocide [5]: Tox | CDI (coefficient of drug interaction), gold + biocide [6]: Tox | CDI [7]: Tox | CDI [8]: Tox | CDI [9]: Tox

O=C(O)CN(CCOCCOCCN(CC(=O)O)CC(=O)O)CC(=O)O [EGTA]
CDI (Copper 0.1 mM, biocide concentration 1 of 4): 1.05 | CDI (Copper 0.1 mM, biocide concentration 2 of 4): 1.25 | CDI (Copper 0.1 mM, biocide concentration 3 of 4): 1.28 | CDI (Copper 0.1 mM, biocide concentration 4 of 4): 1.06 | CDI (Copper 0.5 mM, biocide concentration 1 of 4): 0.87 | CDI (Copper 0.5 mM, biocide concentration 2 of 4): 1.02 | CDI (Copper 0.5 mM, biocide concentration 3 of 4): 1.06 | CDI (Copper 0.5 mM, biocide concentration 4 of 4): 1.04 | CDI (Copper 1.0 mM, biocide concentration 1 of 4): 0.94 | CDI (Copper 1.0 mM, biocide concentration 2 of 4): 1.30 | CDI (Copper 1.0 mM, biocide concentration 3 of 4): 1.59 | CDI (Copper 1.0 mM, biocide concentration 4 of 4): 1.44 | CDI (coefficient of drug interaction) (Gold 5 μM, biocide concentration 1 of 4): 1.05 | CDI (coefficient of drug interaction) (Gold 5 μM, biocide concentration 2 of 4): 0.88 | CDI (coefficient of drug interaction) (Gold 5 μM, biocide concentration 3 of 4): 0.94 | CDI (coefficient of drug interaction) (Gold 5 μM, biocide concentration 4 of 4): 0.92 | CDI (coefficient of drug interaction) (Gold 25 μM, biocide concentration 1 of 4): 1.07 | CDI (coefficient of drug interaction) (Gold 25 μM, biocide concentration 2 of 4): 1.00 | CDI (coefficient of drug interaction) (Gold 25 μM, biocide concentration 3 of 4): 0.95 | CDI (coefficient of drug interaction) (Gold 25 μM, biocide concentration 4 of 4): 0.97 | CDI (coefficient of drug interaction), silver + biocide (Silver 0.5 μM, 1st of four biocide concentrations): 0.74 | CDI (coefficient of drug interaction), silver + biocide (Silver 0.5 μM, 2nd of four biocide concentrations): 0.86 | CDI (coefficient of drug interaction), silver + biocide (Silver 0.5 μM, 3rd of four biocide concentrations): 0.82 | CDI (coefficient of drug interaction), silver + biocide (Silver 0.5 μM, 4th of four biocide concentrations): 0.92 | CDI (coefficient of drug interaction), silver + biocide (Silver 1.0 μM, 1st of four biocide concentrations): 1.02 | CDI (coefficient of drug interaction), silver + biocide (Silver 1.0 μM, 2nd of four biocide concentrations): 1.07 | CDI (coefficient of drug interaction), silver + biocide (Silver 1.0 μM, 3rd of four biocide concentrations): 1.01 | CDI (coefficient of drug interaction), silver + biocide (Silver 1.0 μM, 4th of four biocide concentrations): 1.02 | CDI (coefficient of drug interaction), silver + biocide (Silver 5.0 μM, 1st of four biocide concentrations): 1.13 | CDI (coefficient of drug interaction), silver + biocide (Silver 5.0 μM, 2nd of four biocide concentrations): 0.98 | CDI (coefficient of drug interaction), silver + biocide (Silver 5.0 μM, 3rd of four biocide concentrations): 0.72 | CDI (coefficient of drug interaction), silver + biocide (Silver 5.0 μM, 4th of four biocide concentrations): 0.4 | CDI (coefficient of drug interaction) ([…], biocide concentration 1 of 4): 1.02 | CDI (coefficient of drug interaction) ([…], biocide concentration 2 of 4): 1.13 | CDI (coefficient of drug interaction) ([…], biocide concentration 3 of 4): 1.04 | CDI (coefficient of drug interaction) ([…], biocide concentration 4 of 4): 1.11
